The numbers were not newly measured in patent publication US12622947B2, “Pharmaceutical composition for treating levodopa-induced dyskinesia or for suppressing progression thereof” (PEPTRON, INC., priority 2019, dated 2026), which cites them from elsewhere.

For data set [1] the following is noted: compared to GLP-1-Tf (Martin et al., 2012).
The next data set deals with MPTP mouse model. As to conditions: given daily for 7 days after treatment (Liu et al., 2015).
For data set [2] the following is noted: in vivo.

Take Exendin-4: the rotarod performance result in data set [1] was “improve rotarod performance”. In the data set with MPTP mouse model, the neuro-protection result was “not effective”. In data set [2], the “crossing the BBB / entry into the brain from blood” value was “enter the brain from blood although its entry speed is limited”.
